Series [1] relates to NaV1.7. The following applies: 30 mg/kg; cited from earlier work.
Series [2] concerns NaV1.7. The following applies: cited from earlier work. The text has this: In general, spider venom-derived peptides bind to the voltage-sensing domains of NaV channels to modify gating associated with channel activation and inactivation.
For series [3] the following is noted: cited from earlier work. The text has this:
(§1) However, while NaV1.7 is expressed on axons, it is unlikely to have a major role in action potential propagation, given it has slow recovery from fast inactiv ...

Series [4] has as its system carrageenan-induced thermal allodynia in mice. The experiment in a line: Carrageenan-induced thermal allodynia (thermal probe test). Format: in vivo, mouse (C57BL/6 J). The following applies: P > 0.05. The protocol:
(§2) For behavioural assessment we used adult male C57BL/6 J mice or Sprague Dawley rats aged 5–8 weeks. Animals were housed in groups of 2–4 per cage, under 12 h light-dark cycles with standard rodent chow and water ad libitum. All assessments were performed by a blinded investigator unaware of the treatment each animal received. Ethical approval for in vivo experiments in animals was obtained from the University of Queensland, University of Sydney or United Kingdom Home Office animal ethics committee. Experiments involving animals were conducted in accordance with the International Association for the Study of Pain Guidelines for the Use of Animals in Research and the Australian Code of Practice for the Care and Use of Animals for Scientific Purposes, 8th edition (2013).
(§3) Carrageenan (1% w/v) was administered by i.pl injection in mice as previously described. Behavioural assessment was performed 3 h post-injection. […] Mechanical thresholds were determined using electronic von Frey (MouseMet Electronic von Frey, TopCat Metrology, UK) as previously described. Thermal thresholds were determined using the thermal probe test (MouseMet Thermal, TopCat Metrology) as described.

Series [5] relates to noxious heat response in mice. Put plainly: Hot plate test (50 °C), noxious heat. Format: in vivo, mouse (C57BL/6 J). As to conditions: 30 mg/kg i.p., control 25.9 ± 1.8 s, P > 0.05, n = 6–16. A general note: In hot-plate and tail-flick tests a longer latency is read as antinociception.
Another series has as its system rat NaV1.7 channel. The following applies: cited from earlier work.
In series [6] the test system is formalin-induced pain in mice. The experiment in a line: Formalin-induced spontaneous pain behaviours. Format: in vivo, mouse (C57BL/6 J). As for the experimental part: as §2
Formalin (1% v/v) was administered by i.pl injection in mice as previously described. […] Spontaneous pain behaviours were counted from video recordings. Phase I was defined as 0–10 min and Phase II defined as 10–55 min following formalin injection.

For series [7], the system named is carrageenan-induced mechanical allodynia in mice. Put plainly: Carrageenan-induced mechanical allodynia (electronic von Frey). Format: in vivo, mouse (C57BL/6 J). The protocol: as §2, §3
For series [8], the system named is mice and human lacking functional NaV1.7. As to conditions: in vivo; cited from earlier work.
For series [9], the system named is acute heat responses in mice. Format: in vivo, mouse (C57BL/6 J). The following applies: n = 6. The protocol:
Paw-withdrawal latency in mice pre-administered phlotoxin 1 (i.p. 50 μg/kg; Venomtech, Valbonne, France), thiorphan (i.p. 20 mg/kg), buprenorphine (i.p. 50 μg/kg), or combinations, was determined using the Hargreaves apparatus (Plantar Analgesia Meter, IITC, CA, USA), with three withdrawal responses measured per animal.

Series [10] relates to inflammatory pain in rodents. The following applies: rodent model of inflammatory pain; cited from earlier work.
From the text: as §1

A further series concerns NaV isoforms. The following applies: up to 2 μM; cited from earlier work.

pIC50: −log10 of the molar value. Like-named read-outs stand apart in the source and are kept apart here.

Turning to `Cn1nccc1-c1ccccc1Oc1ccc(S(=O)(=O)Nc2nccs2)cc1C#N` [PF-04856264], in the series with NaV1.7 [1], the “efficacy in the OD1 model” value was “efficacy in the OD1 model at a dose of 30 mg/kg was previously reported”. Also, in the series on NaV1.7 [2], the “state preference at NaV1.7” value is listed as “preferentially bind to the slow inactivated state”. Moreover, the blood-brain barrier penetration result in series [3] (expectation) is reported as “unlikely to cross the blood-brain barrier”. The “paw withdrawal temperature (PWT)” value in [4] (PF-04856264 30 mg/kg i.p., control 44.1 ± 0.5 °C, n = 4–12) turned out to be 44.4 ± 1.2 °C. Moreover, the “time to withdrawal, hot plate” value in series [5] turned out to be 30.7 ± 3.8 s. The “potency at the rat NaV1.7 channel” value in the series with rat NaV1.7 channel is “low potency at the rat NaV1.7 channel”. Moreover, the “formalin Phase I and Phase II pain behaviours” value in series [6] (30 mg/kg i.p., formalin 1% i.pl., P > 0.05, two-way ANOVA, n = 4–15) is reported as “neither Pn3a (3 mg/kg i.p.) (Fig. 7d) or PF-04856264 (30 mg/kg ip.) (Figure 7e) significantly reduced Phase I or Phase II pain behaviours”. For the same molecule, in series [7] (PF-04856264 30 mg/kg i.p., control 1.2 ± 0.2 g, P > 0.05, n = 4–12), the “paw withdrawal force (PWF)” value stood at 1.5 ± 0.3 g.

On to `Nc1[nH]ncc1-c1cc(Cl)ccc1Oc1cc(F)c(S(=O)(=O)Nc2cscn2)cc1Cl` [PF-05089771], for which, in the series with NaV1.7 [2], the “state preference at NaV1.7” value is listed as “preferentially bind to the slow inactivated state”.

For the molecule `NCC1(CC(=O)O)CCCCC1` [gabapentin], the “paw withdrawal temperature (PWT)” value in [4] (gabapentin 100 mg/kg i.p., control 44.5 ± 0.9 °C, n = 3–8) was 45.4 ± 0.5 °C. In addition, in series [7] (gabapentin 100 mg/kg i.p., control 1.1 ± 0.3 g, P > 0.05, n = 3–8), the “paw withdrawal force (PWF)” value was found to be 1.1 ± 0.1 g.

On to `C=CCN1CC[C@]23c4c5ccc(O)c4O[C@H]2C(=O)CC[C@@]3(O)[C@H]1C5` [naloxone], for which the reversal of analgesia result in series [8] is “substantially reverses analgesia”.

On to `COc1ccc2c3c1O[C@H]1C(=O)CC[C@@]4(O)[C@@H](C2)N(C)CC[C@]314` [oxycodone], for which, in series [6] (oxycodone 1 mg/kg i.p., control 227 ± 14, n = 7–11), the “pain behaviours, formalin Phase II” value is 231 ± 22. In addition, the “paw withdrawal force (PWF)” value in [7] (oxycodone 0.67 mg/kg i.p., control 1.2 ± 0.2 g, n = 4–12) stood at 1.8 ± 0.2 g.

Regarding `O=C(O)CNC(=O)C(CS)Cc1ccccc1` (centres unmarked) [thiorphan], the “time to withdrawal, acute heat” value in series [9] (thiorphan 20 mg/kg i.p., control 5.7 ± 0.9 s) stood at 5.0 ± 0.4 s.

In the case of “ProTx-II: NaV1.7 selective spider peptide from the venom of Thrixopelma pruriens”, in the series with NaV1.7 [2], the “onset of effect at NaV1.7” value is “slow onset of effect”. Moreover, the plasma levels entry in [3] (rodent) was “plasma levels sufficient to inhibit NaV1.7 in vitro”. In addition, the analgesic activity result in series [10] is reported as “lack analgesic activity”.

buprenorphine: the “time to withdrawal, acute heat” value in series [9] (buprenorphine 50 μg/kg i.p., control 6.3 ± 0.5 s) is 7.2 ± 0.5 s.

Consider “phlotoxin 1: previously characterized spider peptide NaV1.7 inhibitor”, for which, in the series on NaV1.7 [2], the pIC50 is 6.59. Moreover, the “time to withdrawal, acute heat” value in series [9] (phlotoxin 1 50 μg/kg i.p., buprenorphine experiment, control 6.3 ± 0.5 s) amounted to 5.8 ± 0.7 s; in series [9] (phlotoxin 1 50 μg/kg i.p., thiorphan experiment, control 5.7 ± 0.9 s), 7.3 ± 0.9 s. In addition, in the series on NaV isoforms, the “effect on other NaV isoforms” value is recorded as “no effect on other NaV isoforms”.

Broadly, the pIC50 is the IC50 on a negative log10 scale, so that one unit is a factor of ten.
